{
  "source": "patent US20200261400A1",
  "about": "“METHOD FOR LONG-TERM TREATMENT OF ROSACEA” (Sol-Gel Technologies Ltd., priority 2019, published 2020)",
  "origin": "cited, not measured here",
  "system": "rosacea lesions",
  "conditions": "BPO as the sole active agent",
  "data": [
    {"smiles": "O=C(OOC(=O)c1ccccc1)c1ccccc1", "note": "[BPO, Benzoyl peroxide]", "values": [
      {"measurement": "response of lesions", "value": "unresponsive"}
    ]}
  ]
}
